From paper PMC12488667, “Orodispersible films containing chestnut shell phenolics for buccal delivery: a preclinical approach for oral mucositis prevention” (Frontiers in Medical Technology, 2025)
Several values for one entry are separate records, joined by “and”; a condition that tells them apart may be missing. Equal entries are not always repeated. Where two headings read alike, the source gives them in different places. Marks after values point to notes of the source that are not given here.

Legend:
TR146 cells = assay: In vitro permeation, buccal model; assay type: in vitro ADME, human
Description: The in vitro permeability of the bioactive compounds present in OFs (n = 9) was determined using a co-culture model composed of TR146 ([31]). The extract and the CS-loaded OFs were added to the apical side of the model as a stock solution. […] The Transepithelial Electrical Resistance (TEER) of the model was evaluated before, during, and at the end of the permeability assay using an EVOM Epithelial Volthometer equipped with a chopstick electrode (World Precision Instruments, Sarasota, FL, USA).
(§1) The identification and quantification of the phenolic compounds present in the extract and the OFs, as well as the compounds that permeated from the OFs through in vitro and ex vivo assays, were conducted using an LC-ESI-LTQ-Orbitrap-HRMS equipment with an Accela chromatograph (Thermo Scientific, Hemel Hempstead, UK), a photodiode array detector, a quaternary pump, and a temperature-controlled autosampler coupled to a high-resolution LTQ Orbitrap Velos mass spectrometer (Thermo Scientific, Hemel Hempstead, UK) with an ESI source in negative mode ([33], [34]). The system was controlled using the Xcalibur v3.0 software (ThermoFisher Scientific, Hemel Hempstead, UK). Elution was performed on an Acquity™ UPLC® BEH C18 Column (2.1 × 100 mm, i.d., 1.7 µm particle size, Waters Corporation, Wexford, Ireland) maintained at 30°C.
(§2) Gradient elution was performed with water (A) and acetonitrile (B), both with 0.1% formic acid, with a flow rate and injection volume of 450 µl/min and 5 µl, respectively. The solvent gradient (v/v) of B [t (min), %B] was set as follows: (0, 0), (2, 0), (4, 30), (8, 100), (10, 100), (11, 0), and (14, 0). The samples were analyzed in the full scan mode at a resolving power of 30,000 and m/z 600. Data-dependent MS/MS events were acquired at a resolution of 15,000. Most intense ions were detected via the FTMS mode-triggered data-dependent acquisition mode. Ions that were not sufficiently intense for a data-dependent scan were explored in MSn mode. Precursors were fragmented by collision-induced dissociation using a C-trap with a normalized collision energy (35 V) and an activation time of 10 ms. […] Compounds whose theoretical [M–H]^− values exceeded the MS¹ acquisition range (m/z 100–600) were annotated based on characteristic MSⁿ fragment ions detected within the scan window.

[1] = Ex vivo permeation, Franz cells; assay type: in vitro ADME, porcine
Description: Porcine buccal mucosa was used to evaluate the buccal permeation of the phenolic compounds in the extract and the CS-loaded OFs (n = 9). The porcine buccal mucosa was purchased in a local butcher shop, not requiring ethical approval. A Franz cell assembly (9 mm clear jacketed Franz cell with a flat ground joint, 5 ml receptor volume, and permeation area of 0.785 cm^2; PermeGear, Inc., USA) was used. This experiment followed the methodology described by Rodrigues et al. ([32]). In the Franz apparatus, the porcine buccal mucosa was positioned with the cheek side facing the donor chamber, which contained 500 µl (1,000 μg/ml) of the CS extract or the CS-loaded OFs (two square films (2 × 2 cm) with […] of thickness were dissolved in 4 ml of artificial saliva; donor concentration was normalized to ensure equivalence between the extract solution and the film formulation). The receptor chamber was filled with 5 ml PBS, maintained at 37°C, and stirred continuously at 150 rpm. The volume was maintained through the experiments.
as §1, §2
Quantitative analysis was performed by using a validated chromatographic method ([38]).

O[C@H]1[C@H](O)[C@@H](O)[C@H](O)[C@@H](O)[C@H]1O [Myo-Inositol]
Quantification of permeated compounds (TR146 cells; CS extract): 0.54 ± 0.01^a mg/ml | Quantification of permeated compounds (TR146 cells; CS-loaded OFs): 0.42 ± 0.01^a mg/g film | Permeation (%) (TR146 cells; from CS extract, 15 min): 39.51 ± 0.87^a^,^b % | Permeation (%) (TR146 cells; from CS extract, 30 min): 79.23 ± 1.43c % | Permeation (%) (TR146 cells; from CS extract, 45 min): 12.98 ± 0.01^a % | Permeation (%) (TR146 cells; from CS extract, 60 min): 33.80 ± 0.08^a^,^b % | Permeation (%) (TR146 cells; from CS extract, 90 min): 30.46 ± 0.05^a^,^b % | Permeation (%) (TR146 cells; from CS extract, 120 min): 41.34 ± 1.01^a^,^b % | Permeation (%) (TR146 cells; from CS extract, 180 min): 25.02 ± 0.09^a^,^b % | Permeation (%) (TR146 cells; from CS extract, 240 min): 56.50 ± 0.37^c %

O=c1[nH]c(=O)c2[nH]cnc2[nH]1 [Xanthine]
Permeation (%) ([1]; pig, 15 min, 1000 μg/ml): 6.94 ± 0.02^a % | Permeation (%) ([1]; pig, 30 min, 1000 μg/ml): 6.48 ± 0.02^a %

N[C@@H](Cc1c[nH]c2ccccc12)C(=O)O [L-Tryptophan]
Quantification of permeated compounds ([1]; CS extract): 4.18 ± 0.26^a mg/ml | Quantification of permeated compounds ([1]; CS-loaded OFs): 1.18 ± 0.09^a mg/g film | Permeation (%) ([1]; from CS extract, 15 min): 37.21 ± 0.01^a % | Permeation (%) ([1]; from CS extract, 30 min): 27.24 ± 0.23^a %

O=C(O)CCCCC(=O)O [Adipic acid]
Quantification of permeated compounds ([1]; CS extract): 93.48 ± 2.39^b mg/ml | Quantification of permeated compounds ([1]; CS-loaded OFs): 11.84 ± 2.11^a mg/g film | Permeation (%) ([1]; from CS extract, 15 min): 11.41 ± 0.03^a % | Permeation (%) ([1]; from CS extract, 30 min): 9.47 ± 0.07^a % | Permeation (%) ([1]; from CS-loaded OFs, 15 min): 98.93 ± 2.05^b % | Permeation (%) ([1]; from CS-loaded OFs, 30 min): 97.59 ± 2.36^b %

COc1cc(C[C@@H](CO)[C@H](CO)Cc2ccc(O)c(OC)c2)ccc1O [Secoisolariciresinol]
Permeation (%) (TR146 cells): 22.32 ± 0.12^a %

COC(=O)c1cc(O)c(O)c(O)c1 [Methyl gallate]
Quantification of permeated compounds (TR146 cells; CS extract): 0.37 ± 0.01^a mg/ml | Quantification of permeated compounds (TR146 cells; CS-loaded OFs): 0.37 ± 0.03^a mg/g film | Permeation (%) (TR146 cells; from CS extract, 15 min): 37.24 ± 0.04^a %

O=C(O)CCCCCCCCCC(=O)O [Undecanedioic acid]
Quantification of permeated compounds ([1]; CS extract): 23.93 ± 1.12^a mg/ml | Quantification of permeated compounds ([1]; CS-loaded OFs): 23.67 ± 5.00^a mg/g film | Permeation (%) ([1]; from CS extract, 15 min): 85.64 ± 4.12^a % | Permeation (%) ([1]; from CS extract, 30 min): 86.86 ± 3.52^a %

Oc1cc(O)c2c(c1)O[C@H](c1ccc(O)c(O)c1)[C@H](O)C2 [Epicatechin]
Quantification of permeated compounds (TR146 cells; CS extract): 0.41 ± 0.03^a mg/ml | Quantification of permeated compounds (TR146 cells; CS-loaded OFs): 0.36 ± 0.02^a mg/g film | Permeation (%) (TR146 cells; from CS extract, 15 min): 97.57 ± 1.07^a % | Permeation (%) (TR146 cells; from CS extract, 30 min): 96.86 ± 2.25^a % | Permeation (%) (TR146 cells; from CS extract, 45 min): 97.35 ± 1.74^a % | Permeation (%) (TR146 cells; from CS extract, 60 min): 98.05 ± 3.81^a % | Permeation (%) (TR146 cells; from CS extract, 90 min): 97.75 ± 5.73^a % | Permeation (%) (TR146 cells; from CS extract, 120 min): 97.73 ± 6.01^a % | Permeation (%) (TR146 cells; from CS extract, 180 min): 97.36 ± 2.57^a % | Permeation (%) (TR146 cells; from CS extract, 240 min): 96.86 ± 1.86^a % | Permeation (%) (TR146 cells; from CS extract, 240 min, listed as epicatechin): 96.86%

O=C1CC[C@@H](C(=O)O)N1 [Pyroglutamic acid]
Quantification of permeated compounds (TR146 cells; CS extract): 41.32 ± 2.63^b mg/ml | Quantification of permeated compounds (TR146 cells; CS-loaded OFs): 28.93 ± 1.88^a mg/g film | Permeation (%) (TR146 cells; from CS extract, 15 min): 13.92 ± 0.12^a % | Permeation (%) (TR146 cells; from CS extract, 30 min): 15.39 ± 1.05^a % | Permeation (%) (TR146 cells; from CS extract, 45 min): 18.22 ± 1.41^b % | Permeation (%) (TR146 cells; from CS extract, 60 min): 23.34 ± 0.88^b % | Permeation (%) (TR146 cells; from CS extract, 90 min): 22.87 ± 1.52^b % | Permeation (%) (TR146 cells; from CS extract, 120 min): 23.68 ± 1.84^b % | Permeation (%) (TR146 cells; from CS extract, 180 min): 21.35 ± 0.97^b % | Permeation (%) (TR146 cells; from CS extract, 240 min): 28.47 ± 2.52^b % | Permeation (%) (TR146 cells; from CS-loaded OFs, 15 min): 17.03 ± 0.23^a % | Permeation (%) (TR146 cells; from CS-loaded OFs, 30 min): 39.63 ± 0.24^a^,^b % | Permeation (%) (TR146 cells; from CS-loaded OFs, 45 min): 43.32 ± 1.12^a^,^b % | Permeation (%) (TR146 cells; from CS-loaded OFs, 60 min): 46.32 ± 2.65^a^,^b % | Permeation (%) (TR146 cells; from CS-loaded OFs, 90 min): 65.40 ± 0.82^b % | Permeation (%) (TR146 cells; from CS-loaded OFs, 120 min): 66.95 ± 3.71^b % | Permeation (%) (TR146 cells; from CS-loaded OFs, 180 min): 103.24 ± 2.71^c % | Permeation (%) (TR146 cells; from CS-loaded OFs, 240 min): 111.34% and 111.34 ± 1.62^c %
